Columns and labels:
[1] = system: barnyardgrass; test: Test B pre-/postemergence herbicide test; assay type: in vivo, Echinochloa crus-galli
Summary of the method: (§1)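 Flooded paddy rice and barnyardgrass were treated at the 2-leaf stage; upland plantings received compound either on sown seed or on 1- to 4-leaf seedlings. All were kept 13–15 days in a greenhouse and scored visually, 0–100, relative to untreated plants.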

[2] = system: cocklebur; test: Test B pre-/postemergence herbicide test; assay type: in vivo, Xanthium strumarium
Summary of the method: as §1

[3] = system: corn; test: Test B pre-/postemergence herbicide test; assay type: in vivo, Zea mays
Summary of the method: (§2)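 Pre: seeds sown, then sprayed. Post: 1–4-leaf plants (2–18 cm) sprayed at the same time. Paddy: flooded, treated at 2-leaf stage. Formulation: non-phytotoxic solvent with surfactant. Greenhouse 13–15 days; visual 0–100 score relative to controls.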

[4] = system: giant foxtail; test: Test B pre-/postemergence herbicide test; assay type: in vivo, Setaria faberi
Summary of the method: as §2

[5] = system: lambsquarters; test: Test B pre-/postemergence herbicide test; assay type: in vivo, Chenopodium album
Summary of the method: as §2

[6] = system: morningglory; test: Test B pre-/postemergence herbicide test; assay type: in vivo, Ipomoea coccinea
Summary of the method: as §1

[7] = system: pigweed; test: Test B pre-/postemergence herbicide test; assay type: in vivo, Amaranthus retroflexus
Summary of the method: as §2

[8] = system: velvetleaf; test: Test B pre-/postemergence herbicide test; assay type: in vivo, Abutilon theophrasti
Summary of the method: as §2

[9] = system: blackgrass; test: Test B postemergence herbicide test; assay type: in vivo, Alopecurus myosuroides
Summary of the method: (§3)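 After treating 2-leaf paddy plants or 2–18 cm postemergence plants (1 to 4 leaves) with formulated chemical, researchers kept them in a greenhouse for 13–15 days. Effects were judged visually versus controls: 0 indicates none, 100 total control.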

[10] = system: wheat; test: Test B postemergence herbicide test; assay type: in vivo, Triticum aestivum; design: key to Wheat plant response rating: 0 = no effect, 100 = complete control
Summary of the method: (§4)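 Formulated test chemicals went onto postemergence plants measuring 2 to 18 cm, at one to four leaves. For the paddy assay, species had reached two leaves. Scoring took place 13–15 days later by eye, relative to untreated plants, using 0 for no effect up to 100 for full control.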

[11] = system: wild oat; test: Test B postemergence herbicide test; assay type: in vivo, Avena fatua
Summary of the method: as §4

[12] = system: rice; test: Test B flooded paddy test; assay type: in vivo, Oryza sativa; conditions: 1000 g ai/ha, scale 0 to 100 (0 no effect, 100 complete control)
Summary of the method: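 Plants grow to 1- to 4-leaf stage (2–18 cm) for postemergence spraying, or to 2-leaf stage for the paddy test. Formulated compound is applied. Greenhouse holding lasts 13–15 days. Response is scored visually relative to controls, 0 no effect to 100 complete control; a dash means no result.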

[13] = system: small flower umbrella sedge; test: Test B flooded paddy test; assay type: in vivo, Cyperus difformis; conditions: 1000 g ai/ha, scale 0 to 100 (0 no effect, 100 complete control)
Summary of the method: as §3

[14] = system: ducksalad; test: Test B flooded paddy test; assay type: in vivo, Heteranthera limosa; conditions: 1000 g ai/ha, scale 0 to 100 (0 no effect, 100 complete control)
Summary of the method: as §3

[15] = system: barnyardgrass; test: Test B flooded paddy test; assay type: in vivo, Echinochloa crus-galli; conditions: 1000 g ai/ha, scale 0 to 100 (0 no effect, 100 complete control)
Summary of the method: as §3

[16] = 125 g ai/ha; 0 is no effect, 100 is complete control; preemergence
[17] = 125 g ai/ha; visual rating, scale 0 (no effect) to 100 (complete control); postemergence
[18] = 500 g ai/ha; visual rating, 0 = no effect, 100 = complete control; preemergence
[19] = postemergence, 500 g ai/ha; scale 0 to 100, 0 is no effect, 100 is complete control
[20] = 500 g ai/ha; visual rating 0-100, 0 no effect, 100 complete control; preemergence
[21] = postemergence, 125 g ai/ha; visual rating, scale 0 (no effect) to 100 (complete control)
[22] = postemergence, 500 g ai/ha; visual rating, scale 0 (no effect) to 100 (complete control)
[23] = preemergence, 125 g ai/ha; 0 to 100 scale, 0 is no effect, 100 is complete control
[24] = 125 g ai/ha; 0 = no effect, 100 = complete control; preemergence

C#CCNC(=O)c1cccc(NC(=O)c2sc(C(C)(C)C)nc2CC)c1 [Compound 319]
80: Plant response rating, Barnyardgrass [1, 18] | Sedge, Umbrella plant response rating [13]
90: Ducksalad plant response rating [14]
30: Foxtail, Giant plant response rating [4, 19] | Pigweed plant response rating [7, 17] | Plant response rating, Velvetleaf [8, 18] | Wheat plant response rating [10, 19]
50: Plant response rating (0 to 100 scale), Barnyardgrass [1, 16] | Plant response rating, Foxtail, Giant [4, 18] | Lambsquarters plant response rating [5, 17]
10: Plant response rating, Cocklebur [2, 18] | Plant response rating (0 to 100 scale), Corn [3, 16] | Plant response rating (0 to 100 scale), Morningglory [6, 16] | Morningglory plant response rating [6, 17] | Velvetleaf plant response rating [8, 17] | Wheat plant response rating [10, 17] | Barnyardgrass plant response rating [15]
0: Barnyardgrass plant response rating [1, 17] | Plant response rating (0 to 100 scale), Cocklebur [2, 16] | Plant response rating (0 to 100 scale), Velvetleaf [8, 16] | Blackgrass plant response rating [9, 17] | Blackgrass plant response rating [9, 19]
60: Lambsquarters plant response rating [5, 19] | Plant response rating (0 to 100 scale), Pigweed [7, 16]
20: Barnyardgrass plant response rating [1, 19] | Cocklebur plant response rating [2, 17] | Corn plant response rating [3, 17] | Corn plant response rating [3, 19] | Plant response rating (0 to 100 scale), Foxtail, Giant [4, 16] | Foxtail, Giant plant response rating [4, 17] | Plant response rating (0 to 100 scale), Lambsquarters [5, 16] | Plant response rating, Morningglory [6, 18] | Morningglory plant response rating [6, 19] | Velvetleaf plant response rating [8, 19] | Oat, Wild plant response rating [11, 17] | Oat, Wild plant response rating [11, 19]
40: Cocklebur plant response rating [2, 19] | Plant response rating, Corn [3, 18] | Pigweed plant response rating [7, 19]
70: Rice plant response rating [12]
100: Plant response rating, Lambsquarters [5, 18] | Plant response rating, Pigweed [7, 18]

CCOc1cccc(NC(=O)c2cc(C(C)(C)C)nn2CC)c1 [Compound 136]
40: Wheat plant response rating [10, 22]
0: Plant response rating, Cocklebur [2, 23]
50: Barnyardgrass plant response rating [1, 21] | Plant response rating, Morningglory [6, 23] | Plant response rating, Velvetleaf [8, 23] | Oat, Wild plant response rating [11, 21]
60: Pigweed plant response rating [7, 21] | Velvetleaf plant response rating [8, 21] | Blackgrass plant response rating [9, 22] | Oat, Wild plant response rating [11, 22] | Barnyardgrass plant response rating ([15]; visual rating, 13 to 15 days)
10: Plant response rating, Cocklebur [2, 20] | Corn plant response rating [3, 21] | Plant response rating, Corn [3, 23] | Foxtail, Giant plant response rating [4, 21] | Foxtail, Giant plant response rating [4, 22]
100: Plant response rating, Barnyardgrass [1, 20] | Cocklebur plant response rating [2, 21] | Cocklebur plant response rating [2, 22] | Plant response rating, Foxtail, Giant [4, 20] | Plant response rating, Lambsquarters [5, 20] | Lambsquarters plant response rating [5, 21] | Lambsquarters plant response rating [5, 22] | Plant response rating, Lambsquarters [5, 23] | Morningglory plant response rating [6, 22] | Plant response rating, Pigweed [7, 20] | Plant response rating, Pigweed [7, 23] | Plant response rating, Velvetleaf [8, 20]
90: Barnyardgrass plant response rating [1, 22] | Plant response rating, Barnyardgrass [1, 23] | Pigweed plant response rating [7, 22] | Sedge, Umbrella plant response rating ([13]; visual rating, 13 to 15 days) | Ducksalad plant response rating ([14]; visual rating, 13 to 15 days)
30: Plant response rating, Corn [3, 20] | Corn plant response rating [3, 22] | Blackgrass plant response rating [9, 21] | Rice plant response rating ([12]; visual rating, 13 to 15 days)
70: Plant response rating, Morningglory [6, 20] | Velvetleaf plant response rating [8, 22]
80: Plant response rating, Foxtail, Giant [4, 23]
20: Morningglory plant response rating [6, 21] | Wheat plant response rating [10, 21]

CCNC(=O)c1ccc(F)c(NC(=O)C2CC(C(C)(C)C)=NN2CC)c1 (racemic) [Compound 269]
40: Morningglory plant response rating [6, 19]
80: Barnyardgrass plant response rating (0 to 100 scale) [1, 24] | Plant response rating, Corn [3, 18] | Foxtail, Giant plant response rating (0 to 100 scale) [4, 24] | Rice plant response rating [12] | Sedge, Umbrella plant response rating [13] | Ducksalad plant response rating [14]
20: Cocklebur plant response rating (0 to 100 scale) [2, 24] | Cocklebur plant response rating [2, 21] | Plant response rating, Morningglory [6, 18] | Morningglory plant response rating [6, 21] | Velvetleaf plant response rating [8, 19] | Blackgrass plant response rating [9, 21] | Wheat plant response rating [10, 21] | Oat, Wild plant response rating [11, 21]
70: Plant response rating, Cocklebur [2, 18] | Lambsquarters plant response rating [5, 19]
50: Cocklebur plant response rating [2, 19] | Lambsquarters plant response rating [5, 21] | Blackgrass plant response rating [9, 19]
60: Corn plant response rating (0 to 100 scale) [3, 24] | Pigweed plant response rating [7, 21] | Pigweed plant response rating [7, 19] | Velvetleaf plant response rating (0 to 100 scale) [8, 24]
100: Plant response rating, Barnyardgrass [1, 18] | Plant response rating, Foxtail, Giant [4, 18] | Lambsquarters plant response rating (0 to 100 scale) [5, 24] | Plant response rating, Lambsquarters [5, 18] | Pigweed plant response rating (0 to 100 scale) [7, 24] | Plant response rating, Pigweed [7, 18] | Plant response rating, Velvetleaf [8, 18]
30: Barnyardgrass plant response rating [1, 19] | Corn plant response rating [3, 19] | Foxtail, Giant plant response rating [4, 21] | Foxtail, Giant plant response rating [4, 19] | Wheat plant response rating [10, 19] | Oat, Wild plant response rating [11, 19]
90: Barnyardgrass plant response rating [15]
10: Barnyardgrass plant response rating [1, 21] | Corn plant response rating [3, 21] | Morningglory plant response rating (0 to 100 scale) [6, 24] | Velvetleaf plant response rating [8, 21]

Source: patent US20060069132A1, “Azolecarboxamide herbicides” (priority 2004, published 2006)
